The Kd is the equilibrium constant for the complex coming apart.

Molecules are shown by their SMILES. Where “and” joins values, the source holds several entries; their conditions need not be identical. Equal entries are not always repeated.

13 compounds from publication PMC7292393 (PLoS ONE, 2020) can be followed below.

The target of series [1] is T1, human SUMO1 (Homo sapiens, UniProt P63165).
T1 construct: encoding amino acids 1–97 of mature human SUMO1; host or cells: E. coli BL21 Rosetta (DE3)
In words: Differential scanning fluorimetry (DSF) thermal shift. To be noted: 2 μM SUMO1, 300 μM flavonoid; for DSF Tm SUMO1 + Flavonoid: mean and SEM, n = 5, SUMO1 + DMSO 59.63 ± 0.03. It counts as binding. On the set-up: key to DSF Tm SUMO1 + Flavonoid (class): UF: unfolded protein; ND: melting curve could not be determined. (In general: In DSF a fluorescence change marks the thermal transition of the protein.)

Series [2] addresses T1, human SUMO1. The experiment in a line: SPR secondary screen / dose-dependent binding. The settings on record: for saturation binding in SPR secondary screen: Fig 2A-H; for SPR Screens 2°: five concentrations 31.25-500 μM; for Kd: one-site hyperbola fit, 31.25-500 μM flavonoid, Fig 2A-C, read-out: Kd (SPR secondary screen). On the set-up: key to SPR Screens 2°: ✓: dose-dependent saturation kinetics; ×: no indication of saturation kinetics.

The target of series [3] is T1, human SUMO1. The experiment in a line: Surface plasmon resonance (SPR) primary screen.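 On all read-outs here: recombinant human SUMO1 amine-coupled to a sensor chip, blank activated and quenched reference flow cell, flavonoids injected 2 min then 1 min dissociation.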 The series is classed as binding. The settings on record: for SPR Screens 1° / %RUmax: 500 μM flavonoid in DMSO; for SPR Screens 1°: cut-off of %RUmax of ~15; for interaction in SPR primary screen: 500 μM, %RUmax above threshold of ~15%; for %RUmax: SPR primary screen, (Mean RU/RUmax)*100. On the technique in general: Surface plasmon resonance follows binding to a sensor surface in real time, without labels.

The nature of series [4]: Precipitation in NMR samples. The series is classed as physicochemical. The settings on record: at 400 μM, dissolved in DMSO-d6, NMR sample. As to the method: All NMR experiments for 2D ^1H-^15N HSQC spectra were performed at 17°C on a Varian VNMR 500 MHz spectrometer equipped with a 5mm cryogenic triple resonance probe. Complex points 1024 × 128 and spectral widths of 14 × 38 ppm were used to record all the spectra. […] DMSO-d6 used as a cosolvent caused a slight shift (< ~0.8ppm) of resonance peaks. Therefore resonance assignments for ^15N-labeled SUMO1 residues were compared to the DMSO control treatment and normalized by a common factor. […] The resonance peak assignments were performed using data deposited in the Biological Resonance Data Bank (BMRB) under 25576 as reference. Chemical shift changes were characterized by calculating a weighted chemical shift difference as previously described. […] The chemical shift perturbation data from this work are deposited under BMRB ID 50128.

In series [5] the target is T1, human SUMO1. The experiment in a line: Native-PAGE mobility shift. The series is classed as binding. To be noted: SUMO1 ~40 μM, 300 μM flavonoid. As for the experimental part:
Recombinantly purified proteins (Saccharomyces cerevisiae SMT3, Saccharomyces cerevisiae Ulp1, and human SUMO1) were incubated with flavonoids (or DMSO vehicle control) for 30 min to 1 hr at 4°C. Samples were loaded onto 4–20% or 7.5% Mini-PROTEAN TGX Precast Protein Gels (Bio-Rad, Hercules, CA) and were run […] at 95 V for 4 hr 30 min at 4°C using a standard SDS-free loading buffer (pH 8.0) and Tris-glycine running buffer (pH 8.3). Immediately after electrophoresis, the gel was imaged to track migration of bright yellow flavonoid. Following this step, the gel was stained with Bio-Safe Coomassie (Bio-Rad, Hercules, CA) to detect the proteins.

T1 sequence (P63165 1-97): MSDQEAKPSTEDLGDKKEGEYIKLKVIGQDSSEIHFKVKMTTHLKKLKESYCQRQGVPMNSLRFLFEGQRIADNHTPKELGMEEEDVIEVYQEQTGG

As for `O=c1c(-c2ccc(O)c(O)c2)coc2cc(O)ccc12` [3’,4’,7-Trihydroxy-isoflavone, 3’,4’,7-Trihydroxyisoflavone], at human SUMO1 [1], the “effect on DSF thermogram / thermal stability of SUMO1” value is reported as “significant thermal destabilization or unfolding” and the “DSF Tm SUMO1 + Flavonoid” value was determined as 33.28 ± 0.15 °C. Moreover, on human SUMO1 [2], the “saturation binding in SPR secondary screen” value (“saturation binding” below) is on record as “failed to exhibit saturation binding” and the “SPR Screens 2°” value was “×”. Further, on human SUMO1 [3], the “SPR Screens 1°” value is listed as “✓ (%RUmax with binding activity above cut-off)”, the “interaction in SPR primary screen” value is reported as “interacted with SUMO1 in the primary screen” and the “%RUmax” value was 48.0%.
On to `O=C(/C=C/c1ccc(O)c(O)c1)c1ccc(O)cc1O` [Butein], for which, on human SUMO1 [2], the “saturation binding” value is recorded as “failed to exhibit saturation binding” and the “SPR Screens 2°” value was “×”. Besides, at human SUMO1 [3], the “SPR Screens 1°” value is “✓ (%RUmax with binding activity above cut-off)”, the “interaction in SPR primary screen” value is “interacted with SUMO1 in the primary screen” and the “%RUmax” value came out at 74.2%.
For the compound `COc1cc(O)c(Cc2ccccc2O)c(O)c1C(=O)/C=C/c1ccccc1` [C-benzylated chalcone], on human SUMO1 [3], the “SPR Screens 1°” value is given as “× (low or no binding activity)” and the “%RUmax” value is reported as -5.3%.
For the compound `O=C(/C=C/c1ccc(O)cc1)c1ccc(O)cc1O` [Isoliquiritigenin], on human SUMO1 [2], the “SPR Screens 2°” value is listed as “✓” and the dissociation constant (Kd) was around 196 µM. In addition, on human SUMO1 [3], the “interaction in SPR primary screen” value is recorded as “interacted with SUMO1 in the primary screen”.
For the compound `O=c1c(O)c(-c2ccc(O)cc2)oc2cc(O)cc(O)c12` [Kaempferol, 3,4′,5,7-tetrahydroxyflavone], on human SUMO1 [1], the “effect on DSF thermogram / thermal stability of SUMO1” value is reported as “little or no effect” and the “DSF Tm SUMO1 + Flavonoid” value was 60.28 ± 0.09 °C. Further, in series [4], the “precipitation in NMR sample” value was “Precipitation”. Also, at human SUMO1 [3], the “SPR Screens 1°” value is listed as “× (low or no binding activity)” and the “%RUmax” value turned out to be 12.6%.
Consider `O=c1cc(-c2ccc(O)c(O)c2)oc2cc(O)cc(O)c12` [Luteolin], for which, at human SUMO1 [1], the “effect on DSF thermogram / thermal stability of SUMO1” value was “significant thermal destabilization or unfolding” and the “DSF Tm SUMO1 + Flavonoid” value was 51.89 ± 0.68 °C. The “electrophoretic mobility shift of human SUMO1” value on human SUMO1 [5] was “unable to detect a similar gel shift”. For the same compound, at human SUMO1 [3], the “SPR Screens 1°” value was “× (low or no binding activity)” and the “%RUmax” value is reported as -47.8%.
As for `O=C1C[C@@H](c2ccc(O)cc2)Oc2cc(O)cc(O)c21` [Naringenin], the “DSF Tm SUMO1 + Flavonoid” value on human SUMO1 [1] came out at 59.24 ± 0.13 °C. In addition, on human SUMO1 [2], the “saturation binding” value is “failed to exhibit saturation binding” and the “SPR Screens 2°” value is reported as “×”. Also, on human SUMO1 [3], the “SPR Screens 1°” value was “✓ (%RUmax with binding activity above cut-off)”, the “interaction in SPR primary screen” value is recorded as “interacted with SUMO1 in the primary screen” and the “%RUmax” value came out at 27.5%.
With `C[C@@H]1O[C@@H](O[C@H]2[C@H](Oc3cc(O)c(C(=O)CCc4ccc(O)cc4)c(O)c3)O[C@H](CO)[C@@H](O)[C@@H]2O)[C@H](O)[C@H](O)[C@H]1O` [Naringin dihydrochalcone], the “DSF Tm SUMO1 + Flavonoid” value at human SUMO1 [1] worked out at 59.94 ± 0.07 °C. Besides, on human SUMO1 [3], the “SPR Screens 1°” value is on record as “× (low or no binding activity)” and the “%RUmax” value is recorded as 8.5%.
The corresponding values for `C[C@@H]1O[C@@H](O[C@H]2[C@H](Oc3cc(O)c4c(c3)O[C@H](c3ccc(O)cc3)CC4=O)O[C@H](CO)[C@@H](O)[C@@H]2O)[C@H](O)[C@H](O)[C@H]1O` [Naringin] are 58.93 ± 0.02 °C, “× (low or no binding activity)” and 5.4%.
As to `Cc1c(O)cc2oc(-c3ccc(O)c(O)c3)c(O)c(=O)c2c1O` [Pinoquercetin], on human SUMO1 [2], the “saturation binding” value was “failed to exhibit saturation binding” and the “SPR Screens 2°” value is “×”. On human SUMO1 [3], the “SPR Screens 1°” value was “✓ (%RUmax with binding activity above cut-off)”, the “interaction in SPR primary screen” value is “interacted with SUMO1 in the primary screen” and the “%RUmax” value was determined as 143.4%.
With `O=c1c(O[C@@H]2O[C@H](CO)[C@@H](O)[C@H](O)[C@H]2O)c(-c2ccc(O)c(O)c2)oc2cc(O)cc(O)c12` [Quercetin 3-β-D-glucoside], at human SUMO1 [1], the “DSF Tm SUMO1 + Flavonoid” value was determined as 56.95 ± 0.28 °C. For the same compound, at human SUMO1 [2], the “saturation binding” value is given as “failed to exhibit saturation binding” and the “SPR Screens 2°” value is listed as “×”. At human SUMO1 [3], the “SPR Screens 1°” value is “✓ (%RUmax with binding activity above cut-off)”, the “interaction in SPR primary screen” value is listed as “interacted with SUMO1 in the primary screen” and the “%RUmax” value was determined as 21.3%.
With `O=c1c(O)c(-c2ccc(O)c(O)c2)oc2cc(O)cc(O)c12` [Quercetin, 3,3',4',5,7-pentahydroxyflavone], on human SUMO1 [1], the “DSF Tm SUMO1 + Flavonoid (class)” value is “UF” and the “effect on DSF thermogram / thermal stability of SUMO1” value is reported as “cause unfolding of human SUMO1”. In addition, in series [4], the “precipitation in NMR sample” value is “Precipitation”. On human SUMO1 [2], the “saturation binding” value is given as “exhibited binding that approached saturation”; the “SPR Screens 2°” value is listed as “✓”; the Kd was 41.7 µM and ~42 µM. Further, on human SUMO1 [3], the “SPR Screens 1°” value is “✓ (%RUmax with binding activity above cut-off)”, the “interaction in SPR primary screen” value is “interacted with SUMO1 in the primary screen” and the “%RUmax” value is 14.5%.
In the case of `C[C@@H]1O[C@@H](Oc2c(-c3ccc(O)c(O)c3)oc3cc(O)cc(O)c3c2=O)[C@H](O)[C@H](O)[C@H]1O` [Quercitrin], at human SUMO1 [1], the “effect on DSF thermogram / thermal stability of SUMO1” value is recorded as “significant thermal destabilization or unfolding” and the “DSF Tm SUMO1 + Flavonoid” value worked out at 54.28 ± 0.19 °C. Also, on human SUMO1 [3], the “SPR Screens 1°” value was “× (low or no binding activity)” and the “%RUmax” value worked out at 14.2%.
